Test results: patent US10759796B2, “CXCR4 inhibitors and uses thereof” (X4 Pharmaceuticals, Inc., priority 2016, dated 2020)
pIC50: −log10 of the molar value.

Key:
[1] = target: CXCR-4 transfected U87 cell line (U87.CXCR4) (Homo sapiens (Human), UniProt P61073); assay: Intracellular CXCL-12-induced calcium mobilization assay (FLIPR); type: cell-based; conditions: U87.CXCR4 cells, CXCL-12 25-50 ng/mL; read-out: IC50 CXCL-12 Ca2+ flux U87.CXCR4+
In short: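 U87.CXCR4 cells were seeded at 20,000 per well, cultured 12 hours, then loaded with 4 μM Fluo-2 AM for 45 min at 37° C. in HBSS with 20 mM HEPES and 0.2% BSA, pH 7.4. Calcium flux triggered by CXCL-12 (25-50 ng/mL) was tracked over time by FLIPR fluorescence at 37° C.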

[2] = target: Jurkat cells expressing CXCR4 (Homo sapiens (Human), UniProt P61073); assay: Chemokine (CXCL12-AF647) binding inhibition assay; conditions: CXCL12-AF647 25 ng/mL, read-out: IC50 CXCL-12 binding Jurkat
Sequence of Jurkat cells expressing CXCR4 (P61073 whole entry): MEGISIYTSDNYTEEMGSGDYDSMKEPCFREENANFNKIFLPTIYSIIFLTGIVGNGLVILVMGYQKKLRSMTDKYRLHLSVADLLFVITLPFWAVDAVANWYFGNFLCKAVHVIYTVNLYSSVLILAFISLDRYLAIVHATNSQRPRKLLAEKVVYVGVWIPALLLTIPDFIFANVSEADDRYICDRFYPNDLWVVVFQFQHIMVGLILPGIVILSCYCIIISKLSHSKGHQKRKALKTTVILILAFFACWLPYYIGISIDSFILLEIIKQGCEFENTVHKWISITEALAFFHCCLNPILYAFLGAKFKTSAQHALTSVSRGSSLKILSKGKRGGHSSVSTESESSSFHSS
In short: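 Cells in HBSS, 20 mM HEPES, 0.2% BSA, pH 7.4, preincubated 15 min at room temperature with compound, then 25 ng/mL CXCL12-AF647 for 30 min. After washing and paraformaldehyde fixation, bound ligand read by flow cytometry; percent inhibition calculated from MFI relative to unlabeled and ligand-only controls.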

in vitro = conditions: human, Caco-2, pH 7.4
In short: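 Compounds at 10 μM in HBSS pH 7.4 (0.1–0.3% DMSO) were dosed on Caco-2 monolayers, apical-to-basolateral and basolateral-to-apical, for 90 min at 37 °C, in duplicate. Monolayer integrity was checked by TEER and lucifer yellow flux, read by fluorescence at 485/535 nm. Compound was quantified by LC-MS/MS and Papp calculated.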

Sequence of CXCR-4 transfected U87 cell line (U87.CXCR4) (P61073 whole entry): as above

Structure (SMILES) | pIC50 [1] | pIC50 [2] | Papp A→B at 90 min, 10 μM (in vitro) [×10⁻⁶ cm/s] | Papp B→A at 90 min, 10 μM (in vitro) [×10⁻⁶ cm/s] | efflux ratio at 90 min, 10 μM (in vitro)
Cc1cccnc1[C@@H]1CCC[C@H](c2nc3cccc(N4CCN(C5CC5)CC4)n3c2CO)N1C [Compound I-112] | 6.00 to 7.00 | 7.00 to 11.00 | 10 to 30 | 10 to 30 | 0.1 to 10
CCOCc1c([C@H]2CCC[C@@H](c3ncccc3C)N2C)nc2cccc(N3CCN(CC)CC3)n12 [Compound I-56] | 7.00 to 11.00 | 7.00 to 11.00 | 0.1 to 10 | 10 to 30 | 0.1 to 10
Cc1cccnc1[C@@H]1CCC[C@H](c2nc3ccccn3c2COC2CCN(C)CC2)N1C [Compound I-62] | ≤ 6.00 | 6.00 to 7.00 | 0.1 to 10 | 10 to 30 | > 30
COc1cccnc1[C@@H]1CCC[C@H](c2cn3c(N4CCN(C)CC4)cccc3n2)N1 [Compound I-191] | 6.00 to 7.00 | 7.00 to 11.00 | 0.1 to 10 | > 30 | 10 to 30
Cc1cccnc1[C@@H]1CCC[C@H](c2nc3cccc(N4CC5CCC(C4)N5C)n3c2Cl)N1C [Compound I-137] | 6.00 to 7.00 | 7.00 to 11.00 | 0.1 to 10 | 0.1 to 10 | 0.1 to 10
CN1CC2CCC(C1)N2c1cccc2nc([C@H]3CCC[C@@H](c4ncccc4Cl)N3C)c(CO)n12 [Compound I-134] | 7.00 to 11.00 | 7.00 to 11.00 | 10 to 30 | 10 to 30 | 0.1 to 10
Cc1cccnc1[C@@H]1CCC[C@H](c2nc3ccccn3c2CCCN2CCOCC2)N1C [Compound I-29] | 6.00 to 7.00 | 7.00 to 11.00 | 0.1 to 10 | 10 to 30 | 0.1 to 10
Cc1cccnc1[C@@H]1CCC[C@H](c2cn3c(N4C5CCC4CN(C)C5)cccc3n2)N1C [Compound I-69] | 7.00 to 11.00 | 7.00 to 11.00 | 0.1 to 10 | 10 to 30 | 0.1 to 10
CN1CCN(c2cccc3nc([C@H]4CCC[C@@H](c5ncccc5Cl)N4)c(Cl)n23)CC1 [Compound I-147] | 6.00 to 7.00 | 7.00 to 11.00 | 10 to 30 | 10 to 30 | 0.1 to 10
Cc1cccnc1[C@@H]1CCC[C@H](c2cn3c(N4CCNC5(CC5)C4)cccc3n2)N1 [Compound I-190] | ≤ 6.00 | 6.00 to 7.00 | 0.1 to 10 | > 30 | 10 to 30
CCN1CCN(c2cccc3nc([C@H]4CCC[C@@H](c5ncccc5Cl)N4C)cn23)CC1 [Compound I-151] | 6.00 to 7.00 | 7.00 to 11.00 | 10 to 30 | 10 to 30 | 0.1 to 10
CC(C)N1CCN(c2cccc3nc([C@H]4CCC[C@@H](c5ncccc5Cl)N4C)cn23)CC1 [Compound I-150] | ≤ 6.00 | 7.00 to 11.00 | 0.1 to 10 | 10 to 30 | 0.1 to 10
CN1CCN(c2cccc3nc([C@H]4CCC[C@@H](c5ncccc5C5CC5)N4)c(Cl)n23)CC1 [Compound I-180] | 7.00 to 11.00 | 7.00 to 11.00 | 10 to 30 | 10 to 30 | 0.1 to 10
Cc1cccnc1[C@@H]1CCC[C@H](c2cn3c(N4CCN(C5CCOCC5)CC4)cccc3n2)N1C [Compound I-53] | 6.00 to 7.00 | 7.00 to 11.00 | 0.1 to 10 | 10 to 30 | 0.1 to 10
Cc1cccnc1[C@@H]1CCC[C@H](c2cn3c(N4CCN(C)C(=O)C4)cccc3n2)N1 [Compound I-210] | ≤ 6.00 | ≤ 6.00 | 0.1 to 10 | 10 to 30 | > 30
CN(C)C1CCN(c2cccc3nc([C@H]4CCC[C@@H](c5ncccc5Cl)N4C)c(Cl)n23)CC1 [Compound I-132] | 6.00 to 7.00 | 7.00 to 11.00 | 0.1 to 10 | 0.1 to 10 | 0.1 to 10
CCN1CCN(c2cccc3nc([C@H]4CCC[C@@H](c5ncccc5Cl)N4C)c(Cl)n23)CC1 [Compound I-125] | 6.00 to 7.00 | 7.00 to 11.00 | 0.1 to 10 | 0.1 to 10 | 0.1 to 10
CC(C)c1cccnc1[C@@H]1CCC[C@H](c2nc3cccc(N4CCN(C)CC4)n3c2Cl)N1C [Compound I-91] | ≤ 6.00 | 6.00 to 7.00 | 0.1 to 10 | 0.1 to 10 | 0.1 to 10
Clc1cccnc1[C@@H]1CCC[C@H](c2nc3cccc(N4CCNC5(CC5)C4)n3c2Cl)N1 [Compound I-167] | ≤ 6.00 | 6.00 to 7.00 | 0.1 to 10 | 0.1 to 10 | 0.1 to 10
Cc1cccnc1[C@H]1CCC[C@@H](c2nc3cccc(N4CCN(C)CC4)n3c2C)N1 (stereo in doubt) [Compound I-192] | 7.00 to 11.00 | 7.00 to 11.00 | 0.1 to 10 | 10 to 30 | 0.1 to 10

The next lines start with the values.

pIC50 [1] | pIC50 [2] | Papp A→B at 90 min, 10 μM (in vitro) [×10⁻⁶ cm/s] | Papp B→A at 90 min, 10 μM (in vitro) [×10⁻⁶ cm/s] | efflux ratio at 90 min, 10 μM (in vitro) | Structure (SMILES)
7.00 to 11.00 | 7.00 to 11.00 | 0.1 to 10 | 10 to 30 | 0.1 to 10 | Cc1cccnc1[C@@H]1CCC[C@H](c2cn3c(N4CCN(C(C)C)CC4)cccc3n2)N1C [Compound I-15]
7.00 to 11.00 | 7.00 to 11.00 | 0.1 to 10 | 10 to 30 | > 30 | Cc1cccnc1[C@@H]1CCC[C@H](c2cn3c(N4CCNCC4)cccc3n2)N1C [Compound I-4]
7.00 to 11.00 | 7.00 to 11.00 | 10 to 30 | > 30 | 0.1 to 10 | Cc1cccnc1[C@@H]1CCC[C@H](c2cn3c(N4CCN5CCCC5C4)cccc3n2)N1C (stereo partly shown) [Compound I-77]
7.00 to 11.00 | 7.00 to 11.00 | 0.1 to 10 | 10 to 30 | 0.1 to 10 | Cc1cccnc1[C@@H]1CCC[C@H](c2cn3c(N4CCN(C)CC4)cccc3n2)N1CCCO [Compound I-49]
7.00 to 11.00 | 7.00 to 11.00 | 0.1 to 10 | 0.1 to 10 | 0.1 to 10 | Cc1cccnc1[C@@H]1CC(=O)C[C@H](c2cn3c(N4CCN(C)CC4)cccc3n2)N1C [Compound I-3]
7.00 to 11.00 | 7.00 to 11.00 | 0.1 to 10 | 10 to 30 | 10 to 30 | Cc1cccnc1[C@@H]1CCC[C@H](c2cn3c(N4CCN(C)CC4)cccc3n2)N1C(C)C [Compound I-126]
7.00 to 11.00 | 7.00 to 11.00 | 0.1 to 10 | 10 to 30 | 0.1 to 10 | CN1CCN(c2cccc3nc([C@H]4CCC[C@@H](c5ncccc5Cl)N4C)cn23)CC1 [Compound I-82]
7.00 to 11.00 | 7.00 to 11.00 | 10 to 30 | 0.1 to 10 | 0.1 to 10 | Cc1cccnc1[C@H]1CCC[C@@H](c2nc3cccc(N4CCN(C)CC4)n3c2F)N1C (stereo in doubt) [Compound I-34]
7.00 to 11.00 | 7.00 to 11.00 | 0.1 to 10 | 10 to 30 | 10 to 30 | Cc1cccnc1[C@@H]1CCC[C@H](c2cn3c(N4CCN(C)CC4)ccc(N)c3n2)N1C [Compound I-76]
